According to patent US20210403435A1, “HERBICIDAL COMPOUNDS” (SYNGENTA CROP PROTECTION AG, priority 2018, published 2021):
Structures can show the parent of a compound that is named as a salt. Where two headings read alike, the source gives them in different places.

Key:
Assay in all cases: Post-emergence efficacy, glasshouse, evaluated after 13 days
Assay type in all cases: in vivo
[1] = system: Amaranthus palmeri (AMAPA); conditions: for pest or weed control at 500 g/ha: Amaranthus palmeri, 312 h, read-out: Control of weed species AMAPA (100=total damage to plant; 0=no damage to plant)
Protocol: (§1) Seeds of a variety of test species were sown in standard soil in pots. After cultivation for 14 days (post-emergence) under controlled conditions in a glasshouse (at 24/16° C., day/night; 14 hours light; 65% humidity), the plants were sprayed with an aqueous spray solution derived from the dissolution of the technical active ingredient formula (I) in a small amount of acetone and a special solvent and emulsifier mixture referred to as IF50 (11.12% Emulsogen EL360 TM+44.44% N-methylpyrrolidone+44.44% Dowanol DPM glycol ether), to create a 50 g/l solution which was then diluted to required concentration using 0.25% or 1% Empicol ESC70 (Sodium lauryl ether sulphate)+1% ammonium sulphate as diluent.
(§2) The test plants were then grown in a glasshouse under controlled conditions (at 24/16° C., day/night; 14 hours light; 65% humidity) and watered twice daily. After 13 days the test was evaluated (100=total damage to plant; 0=no damage to plant).
(§3) Ipomoea hederacea (IPOHE), Euphorbia heterophylla (EPHHL), Chenopodium album (CHEAL), Amaranthus palmeri (AMAPA), Lolium perenne (LOLPE), Digitaria sanguinalis (DIGSA), Eleusine indica (ELEIN), Echinochloa crus-galli (ECHCG), Setaria faberi (SETFA)

[2] = system: Chenopodium album (CHEAL); conditions: for pest or weed control at 500 g/ha: Chenopodium album, 312 h, read-out: Control of weed species CHEAL (100=total damage to plant; 0=no damage to plant)
Protocol: as §1, §2, §3

[3] = system: Digitaria sanguinalis (DIGSA); conditions: for pest or weed control at 500 g/ha: Digitaria sanguinalis, 312 h, read-out: Control of weed species DIGSA (100=total damage to plant; 0=no damage to plant)
Protocol: as §1, §2, §3

[4] = system: Echinochloa crus-galli (ECHCG); conditions: for pest or weed control at 500 g/ha: Echinochloa crus-galli, 312 h, read-out: Control of weed species ECHCG (100=total damage to plant; 0=no damage to plant)
Protocol: as §1, §2, §3

Eleusine indica (ELEIN) = conditions: for pest or weed control at 500 g/ha: Eleusine indica, 312 h, read-out: Control of weed species ELEIN (100=total damage to plant; 0=no damage to plant)
Protocol: as §1, §2, §3

[5] = system: Euphorbia heterophylla (EPHHL); conditions: Euphorbia heterophylla, 312 h, read-out: Control of weed species EPHHL (100=total damage to plant; 0=no damage to plant)
Protocol: as §1, §2, §3

[6] = system: Ipomoea hederacea (IPOHE); conditions: for pest or weed control at 500 g/ha: Ipomoea hederacea, 312 h, read-out: Control of weed species IPOHE (100=total damage to plant; 0=no damage to plant)
Protocol: as §1, §2, §3

Lolium perenne (LOLPE) = conditions: for pest or weed control at 500 g/ha: Lolium perenne, 312 h, read-out: Control of weed species LOLPE (100=total damage to plant; 0=no damage to plant)
Protocol: as §1, §2, §3

Setaria faberi (SETFA) = conditions: for pest or weed control at 500 g/ha: Setaria faberi, 312 h, read-out: Control of weed species SETFA (100=total damage to plant; 0=no damage to plant)
Protocol: as §1, §2, §3

[7] = post-emergence application, 500 g/Ha, evaluated after 13 days

| SMILES | pest or weed control at 500 g/ha [1, 7] | pest or weed control at 500 g/ha [2, 7] | pest or weed control at 500 g/ha [3, 7] | pest or weed control at 500 g/ha [4, 7] | pest or weed control at 500 g/ha (Eleusine indica (ELEIN); [7]) | pest or weed control at 500 g/ha [5, 7] | pest or weed control at 500 g/ha [6, 7] | pest or weed control at 500 g/ha (Lolium perenne (LOLPE); [7]) | pest or weed control at 500 g/ha (Setaria faberi (SETFA); [7]) | other results |
| --- | --- | --- | --- | --- | --- | --- | --- | --- | --- | --- |
| O=C(O)CC[n+]1ccc(C(=O)NC2CSC2)cn1 [Compound A69] | 90% | 60% | 100% | 100% | 30% | 70% | 40% | 40% | 100% |  |
| C#CC(C)(C)NC(=O)c1cc[n+](CCC(=O)O)nc1 [Compound A77] | 100% | 90% |  |  |  | 100% | 10% | 80% | 100% |  |
| O=C(O)CC[n+]1ccc(C(=O)NC2CCCC2)cn1 [Compound A58] | 70% | 60% | 90% | 70% | 90% |  | 30% | 90% | 90% |  |
| CCCCNC(=O)c1cc[n+](CCC(=O)O)nc1 [Compound A45] | 80% | 90% | 70% | 70% | 80% |  | 30% | 60% | 90% |  |
| O=C(O)CC[n+]1ccc(C(=O)NC2C[S+]([O-])C2)cn1 (stereo not drawn) [Compound A68] | 100% | 90% | 100% | 100% |  | 100% | 100% | 90% | 70% |  |
| CC(C)N(C)C(=O)c1cc[n+](CCS(=O)(=O)O)nc1 [Compound A9] | 90% | 90% | 50% | 30% | 20% |  | 30% | 30% | 60% |  |
| CC(=O)NNC(=O)c1cc[n+](CCC(=O)O)nc1 [Compound A105] | 50% | 70% |  | 40% | 30% | 60% | 30% | 10% | 60% |  |
| O=C(NCCO)c1cc[n+](CCS(=O)(=O)[O-])nc1 [Compound A49] | 100% | 80% | 100% | 80% | 30% |  | 70% | 60% | 90% |  |
| C#CC(C)NC(=O)c1cc[n+](CCC(=O)O)nc1 (stereo not drawn) [Compound A78] | 100% | 100% |  |  |  | 70% | 90% | 80% | 100% |  |
| CCNC(=O)c1cc[n+](C[C@H](N)C(=O)O)nc1 [Compound A121, [(1S)-1-carboxy-2-[4-(ethylcarbamoyl)pyridazin-1-ium-1-yl]ethyl]ammonium 2,2,2-trifluoroacetate] |  |  |  |  |  |  |  |  |  | pest or weed control at 500 g/ha ([1]; post-emergence): 10%; pest or weed control at 500 g/ha ([2]; post-emergence): 20%; pest or weed control at 500 g/ha ([4]; post-emergence): 10%; pest or weed control at 500 g/ha (Eleusine indica (ELEIN); post-emergence): 10%; pest or weed control at 500 g/ha ([5]; post-emergence): 30%; pest or weed control at 500 g/ha ([6]; post-emergence): 10%; pest or weed control at 500 g/ha (Lolium perenne (LOLPE); post-emergence): 10%; pest or weed control at 500 g/ha (Setaria faberi (SETFA); post-emergence): 10% |
| O=C(O)CC[n+]1ccc(C(=O)NC2CS(=O)(=O)C2)cn1 [Compound A67] | 30% | 50% | 100% | 100% | 90% |  | 30% | 90% | 100% |  |
| CNC(=O)c1cc[n+](CCC(=O)O)nc1-c1ccccc1 [Compound A55] | 100% | 80% | 60% | 80% | 30% |  | 40% | 0% | 40% |  |
| CCNC(=O)c1cc[n+](CCS(=O)(=O)[O-])nc1 [Compound A48] | 90% |  | 90% | 70% | 100% |  | 80% | 70% | 90% |  |
| CNC(=O)c1cc[n+](CCS(=O)(=O)[O-])nc1C [Compound A56] |  |  |  |  |  |  |  |  |  | Control of weed species AMAPA (100=total damage to plant; 0=no damage to plant) [1, 7]: 100; Control of weed species CHEAL (100=total damage to plant; 0=no damage to plant) [2, 7]: 90; Control of weed species DIGSA (100=total damage to plant; 0=no damage to plant) [3, 7]: 80; Control of weed species ECHCG (100=total damage to plant; 0=no damage to plant) [4, 7]: 90; Control of weed species ELEIN (100=total damage to plant; 0=no damage to plant) (Eleusine indica (ELEIN); [7]): 60; Control of weed species IPOHE (100=total damage to plant; 0=no damage to plant) [6, 7]: 30; Control of weed species LOLPE (100=total damage to plant; 0=no damage to plant) (Lolium perenne (LOLPE); [7]): 40; Control of weed species SETFA (100=total damage to plant; 0=no damage to plant) (Setaria faberi (SETFA); [7]): 60 |
| CCNC(=O)c1cc[n+](CCP(=O)(O)O)nc1 [Compound A119] | 100% | 100% |  | 30% | 30% | 80% | 50% | 20% | 50% |  |
| CNC(=O)c1cc[n+](CCS(=O)(=O)[O-])nc1-c1ccccc1 [Compound A54] | 80% | 70% | 60% | 40% | 50% |  | 10% | 0% | 20% |  |
| CNC(=O)c1cc[n+](CCC(=O)O)nc1 [Compound A4, 3-[4-(methylcarbamoyl)pyridazin-1-ium-1-yl]propanoic acid trifluoroacetate] |  |  |  |  |  |  |  |  |  | pest or weed control at 500 g/ha ([2]; post-emergence): 80%; pest or weed control at 500 g/ha ([3]; post-emergence): 100%; pest or weed control at 500 g/ha ([4]; post-emergence): 90%; pest or weed control at 500 g/ha (Eleusine indica (ELEIN); post-emergence): 100%; pest or weed control at 500 g/ha ([5]; post-emergence): 90%; pest or weed control at 500 g/ha ([6]; post-emergence): 80%; pest or weed control at 500 g/ha (Lolium perenne (LOLPE); post-emergence): 60%; pest or weed control at 500 g/ha (Setaria faberi (SETFA); post-emergence): 90% |
